Results: ChEMBL document CHEMBL5042529, “One-Pot Enzymatic Synthesis and Biological Evaluation of Ganglioside GM3 Derivatives as Potential Cancer Immunotherapeutics” (J Med Chem, 2022)
Active and inactive are the calls of the source. The rule behind the calls is not given here.

Assays:
B16 [1] = assay: Anticancer activity against mouse B16-Luc cells transfected in C57BL/6 mouse assessed as increase in tumor necrotic area at 5 mg/kg, ip qd treated for 7 days by H and E staining based microscopy relative to control; type: functional, organism-based; conditions: time 7.0 day
Mus musculus [2] = assay: Effect on IL-2 expression in BALB/c mouse transfected with mouse B16-Luc cells assessed as serum IL-2 level at 5 mg/kg, ip qd treated for 7 days by ELISA; type: functional, organism-based; conditions: time 7.0 day
[3] = Downregulation of LAMA5 gene expression in human A431 cells at 50 uM incubated for 24 hrs by RNA-seq analysis; type: functional; conditions: A-431
[4] = Downregulation of XIAP gene expression in human A431 cells at 50 uM incubated for 24 hrs by qPCR analysis; type: functional; conditions: A-431
[5] = Cytotoxicity against human HeLa cells measured after 24 hrs by MTT assay; type: toxicity, cell-based
[6] = Clearance in C57BL/6 mouse at 10 mg/kg, iv measured upto 24 hrs; type: ADME, organism-based; conditions: in vivo
B16 [7] = assay: Anticancer activity against mouse B16-Luc cells transfected in C57BL/6 mouse assessed as cellular debris in tumor tissue at 5 mg/kg, ip qd treated for 7 days by H and E staining based microscopy; type: functional, organism-based; conditions: time 7.0 day
Mus musculus [8] = assay: Effect on IgG expression in BALB/c mouse transfected with mouse B16-Luc cells assessed as serum IgG level at 5 mg/kg, ip qd treated for 7 days by ELISA; type: functional, organism-based; conditions: time 7.0 day
B16 [9] = assay: Anticancer activity against mouse B16-Luc cells transfected in BALB/c mouse assessed as nuclear pyknosis in tumor tissue at 5 mg/kg, ip qd treated for 7 days by H and E staining based microscopy; type: functional, organism-based; conditions: time 7.0 day
B16 [10] = assay: Anticancer activity against mouse B16-Luc cells transfected in BALB/c mouse assessed as increase in tumor necrotic area at 5 mg/kg, ip qd treated for 7 days by H and E staining based microscopy relative to control; type: functional, organism-based; conditions: time 7.0 day
A-431 [11] = assay: Antimigratory activity in human A-431 cells assessed as inhibition of scratch at 50 uM measured after 24 hrs by Wound healing assay; type: functional; set-up: scale not given: the % may be the effect or the level left
[12] = Toxicity in C57BL/6 mouse transfected with mouse B16-Luc cells assessed as behavioral abnormalities at 5 mg/kg, sc qd treated for 7 days; type: organism-based; conditions: in vivo, 168 h, time 7 day
[13] = Half life in C57BL/6 mouse 10 mg/kg, iv measured upto 24 hrs; type: ADME, organism-based; conditions: in vivo
[14] = Cytotoxicity against rat PC-12 cells measured after 24 hrs by MTT assay; type: toxicity, cell-based
A-431 [15] = assay: Inhibition of cell invasion in human A-431 cells assessed as inhibition rate at 50 uM incubated for 24 hrs by crystal violet staining based transwell assay; type: functional
B16 [16] = assay: Anticancer activity against mouse B16-Luc cells transfected in BALB/c mouse assessed as relative tumor weight at 5 mg/kg, ip qd treated for 7 days (reference value: 5.3 + /-1.4 g); type: functional; conditions: time 7 day
B16 [17] = assay: Anticancer activity against mouse B16-Luc cells transfected in BALB/c mouse assessed as cellular debris in tumor tissue at 5 mg/kg, ip qd treated for 7 days by H and E staining based microscopy; type: functional, organism-based; conditions: time 7.0 day
B16 [18] = assay: Anticancer activity against mouse B16-Luc cells transfected in C57BL/6 mouse assessed as nuclear pyknosis in tumor tissue at 5 mg/kg, ip qd treated for 7 days by H and E staining based microscopy; type: functional, organism-based; conditions: time 7.0 day
[19] = Reduction of integrin beta1 expression in human A431 cells at 50 uM incubated for 24 hrs by Western blotting analysis; type: functional; conditions: A-431
[20] = Downregulation of LAMA5 gene expression in human A431 cells at 50 uM incubated for 24 hrs by qPCR analysis; type: functional; conditions: A-431
B16 [21] = assay: Anticancer activity against mouse B16-Luc cells transfected in C57BL/6 mouse assessed as cell atypia in tumor tissue at 5 mg/kg, ip qd treated for 7 days by H and E staining based microscopy; type: functional, organism-based; conditions: time 7.0 day
[22] = Downregulation of VAVI gene expression in human A431 cells at 50 uM incubated for 24 hrs by qPCR analysis; type: functional; conditions: A-431
[23] = Downregulation of VAVI gene expression in human A431 cells at 50 uM incubated for 24 hrs by RNA-seq analysis; type: functional; conditions: A-431
B16 [24] = assay: Anticancer activity against mouse B16-Luc cells transfected in BALB/c mouse assessed as tumor inhibition rate at 5 mg/kg, ip qd treated for 7 days; type: functional; conditions: 168 h, time 7 day
[25] = Downregulation of HSPG2 gene expression in human A431 cells at 50 uM incubated for 24 hrs by RNA-seq analysis; type: functional; conditions: A-431
B16 [26] = assay: Anticancer activity against mouse B16-Luc cells transfected in C57BL/6 mouse assessed as inflammatory cell infiltration in tumor tissue at 5 mg/kg, ip qd treated for 7 days by H and E staining based microscopy; type: functional, organism-based; conditions: time 7.0 day
[27] = Cytotoxicity against mouse Neuro2a cells measured after 24 hrs by MTT assay; type: toxicity, cell-based, N2a
B16 [28] = assay: Anticancer activity against mouse B16-Luc cells transfected in C57BL/6 mouse assessed as tumor inhibition rate at 5 mg/kg, ip qd treated for 7 days; type: functional; conditions: 168 h, time 7 day
[29] = Downregulation of HSPG2 gene expression in human A431 cells at 50 uM incubated for 24 hrs by qPCR analysis; type: functional; conditions: A-431
[30] = Reduction of VAVI expression in human A431 cells at 50 uM incubated for 24 hrs by Western blotting analysis; type: functional; conditions: A-431
[31] = Cytotoxicity against CHO cells measured after 24 hrs by MTT assay; type: toxicity, cell-based, Cricetulus griseus; conditions: Chinese hamster
Mus musculus [32] = assay: Increase in IL-12 expression in C57BL/6 mouse transfected with mouse B16-Luc cells assessed as […] at 5 mg/kg, ip qd treated for 7 days by ELISA; type: functional, organism-based; conditions: time 7.0 day
Mus musculus [33] = assay: Effect on IL-2 expression in C57BL/6 mouse transfected with mouse B16-Luc cells assessed as serum IgG level at 5 mg/kg, ip qd treated for 7 days by ELISA; type: functional, organism-based; conditions: time 7.0 day
[34] = Cytotoxicity against human A-431 cells measured after 24 hrs by MTT assay; type: toxicity, cell-based
B16 [35] = assay: Anticancer activity against mouse B16-Luc cells transfected in BALB/c mouse assessed as inflammatory cell infiltration in tumor tissue at 5 mg/kg, ip qd treated for 7 days by H and E staining based microscopy; type: functional, organism-based; conditions: time 7.0 day
[36] = Downregulation of XIAP gene expression in human A431 cells at 50 uM incubated for 24 hrs by RNA-seq analysis; type: functional; conditions: A-431
[37] = Toxicity in BALB/c mouse transfected with mouse B16-Luc cells assessed as behavioral abnormalities at 5 mg/kg, sc qd treated for 7 days; type: organism-based; conditions: in vivo, 168 h, time 7 day
Mus musculus [38] = assay: Effect on IL-2 expression in C57BL/6 mouse transfected with mouse B16-Luc cells assessed as serum IL-2 level at 5 mg/kg, ip qd treated for 7 days by ELISA; type: functional, organism-based; conditions: time 7.0 day
B16 [39] = assay: Anticancer activity against mouse B16-Luc cells transfected in BALB/c mouse assessed as cell atypia in tumor tissue at 5 mg/kg, ip qd treated for 7 days by H and E staining based microscopy; type: functional, organism-based; conditions: time 7.0 day
[40] = Apparent volume of distribution in C57BL/6 mouse at 10 mg/kg, iv measured upto 24 hrs; type: ADME, organism-based; conditions: in vivo
B16 [41] = assay: Anticancer activity against mouse B16-Luc cells transfected in C57BL/6 mouse assessed as relative tumor weight at 5 mg/kg, ip qd treated for 7 days (reference value: 8 + /- 4.1 g); type: functional; conditions: time 7 day
Mus musculus [42] = assay: Increase in IL-12 expression in BALB/c mouse transfected with mouse B16-Luc cells assessed as […] at 5 mg/kg, ip qd treated for 7 days by ELISA; type: functional, organism-based; conditions: time 7.0 day
Mus musculus [43] = assay: Effect on IL-2 expression in C57BL/6 mouse transfected with mouse B16-Luc cells assessed as serum […] level at 5 mg/kg, ip qd treated for 7 days by ELISA; type: functional, organism-based; conditions: time 7.0 day

With CCCCCCCCCCCCC/C=C/[C@@H](O)[C@H](CO[C@@H]1O[C@H](CO)[C@@H](O[C@@H]2O[C@H](CO)[C@H](O)[C@H](O[C@]3(C(=O)O)C[C@H](O)[C@@H](NC(=O)c4cccc(I)c4)[C@H]([C@H](O)[C@H](O)CO)O3)[C@H]2O)[C@H](O)[C@H]1O)NC(=O)CCCCCCCCCCCCCCCCC the Activity (B16 [1]) was “Active”, the Activity (Mus musculus [2]) was “inactive” and the inhibition at 50 µM [3] was 50.8%. For the same molecule, the inhibition at 50 µM [4] was 46.2%, the IC50 at 24 h [5] was > 200 µM and the CL [6] was 0.483 µL/min/mg. For the same molecule, the Activity (B16 [7]) was “Active”, the Activity (Mus musculus [8]) was “inactive” and the Activity (B16 [9]) was “Active”. For the same molecule, the Activity (B16 [10]) was “Active”, the Activity (A-431 [11]) was 46.7% and the Activity [12] was “Non-Toxic”. For the same molecule, the half-life [13] was 56.8 h, the IC50 at 24 h [14] was > 200 µM and the inhibition at 50 µM (A-431 [15]) was 36.6%. The Activity (B16 [16]) was 5.3 g, the Activity (B16 [17]) was “Active” and the Activity (B16 [18]) was “Active”. The inhibition at 50 µM [19] was 14.7%, the inhibition at 50 µM [20] was 54.1% and the Activity (B16 [21]) was “Active”. The inhibition at 50 µM [22] was 93.4%, the inhibition at 50 µM [23] was 100% and the inhibition in vivo at 5 mg/kg (B16 [24]) was 29.2%. For the same molecule, the inhibition at 50 µM [25] was 55.2%, the Activity (B16 [26]) was “Active” and the IC50 at 24 h [27] was > 200 µM. For the same molecule, the inhibition in vivo at 5 mg/kg (B16 [28]) was 46.2%, the inhibition at 50 µM [29] was 33.4% and the inhibition at 50 µM [30] was 14.5%. The IC50 at 24 h [31] was > 200 µM, the Activity (Mus musculus [32]) was “inactive” and the Activity (Mus musculus [33]) was “inactive”. The IC50 at 24 h [34] was > 200 µM, the Activity (B16 [35]) was “Active” and the inhibition at 50 µM [36] was 52.5%. The Activity [37] was “Non-Toxic”, the Activity (Mus musculus [38]) was “inactive” and the Activity (B16 [39]) was “Active”. The Vd [40] was 2.4 mL/mg, the Activity (B16 [41]) was 4.3 g and the Activity (Mus musculus [42]) was “inactive”. The Activity (Mus musculus [43]) was “inactive”.
